Source: US11091445B2, “Compounds, process for obtaining the compounds, pharmaceutical composition, use of the compounds and method for treating psychiatric disorders and/or sleep disorders” (Aché Laboratórios Farmacêuticos S.A., priority 2016, dated 2021)

How the values were obtained:
[1] = tested on: cryopreserved human hepatocytes; experiment: Intrinsic clearance in cryopreserved human hepatocytes; assay type: in vitro ADME; settings: 37° C.
Procedure: (§1) Cryopreserved hepatocytes from humans, rats (Sprague-Dawley males) and from mice (CD-1 males) were used for incubation at different times (0, 0.5, 1, 1.5, 2 hours) at 37° C. followed by HPLC-MS/MS detection. The aim was to verify the clearance time of the test substance on hepatocytes. The experiment was performed on a 96-well plate and the cryopreserved hepatocytes were thawed and resuspended in Krebs-Heinslet buffer (pH 7.3). The reaction was started by adding each test compound to each cell suspension and performing the incubation at the times indicated above. The reaction was quenched with addition of acetonitrile in the wells and detection by HPLC-MS/MS (mass spectrometry). MS/MS is performed by combining two mass detectors into a single instrument.

CYP1A2 [2] = target: T1, CYP1A2 (Homo sapiens (Human), UniProt P05177); settings: cited from earlier work
T1 sequence (P05177 whole entry): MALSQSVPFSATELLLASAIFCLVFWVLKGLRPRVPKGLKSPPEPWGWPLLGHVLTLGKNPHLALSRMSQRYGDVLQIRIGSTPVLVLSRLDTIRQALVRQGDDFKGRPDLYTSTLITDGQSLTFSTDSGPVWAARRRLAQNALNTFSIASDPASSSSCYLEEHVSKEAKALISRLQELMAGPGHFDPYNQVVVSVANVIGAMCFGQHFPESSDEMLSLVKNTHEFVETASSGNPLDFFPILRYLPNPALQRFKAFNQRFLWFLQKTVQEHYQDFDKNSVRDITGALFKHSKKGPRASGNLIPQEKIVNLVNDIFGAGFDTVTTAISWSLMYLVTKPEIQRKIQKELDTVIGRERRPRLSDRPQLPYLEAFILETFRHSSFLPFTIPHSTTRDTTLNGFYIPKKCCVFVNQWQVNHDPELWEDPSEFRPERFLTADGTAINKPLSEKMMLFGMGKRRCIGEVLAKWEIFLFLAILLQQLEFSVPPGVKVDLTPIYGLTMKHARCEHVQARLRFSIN

[3] = tested on: cryopreserved hepatocytes from rats (Sprague-Dawley males); experiment: Intrinsic clearance in cryopreserved rat hepatocytes; assay type: in vitro ADME; settings: 37° C.
Procedure: as §1

CYP2C9 and CYP2C19 = settings: cited from earlier work
CYP1A2 [4] = target: T1, CYP1A2; experiment: CYP inhibition, fluorogenic substrate; assay type: in vitro ADME
From the text: The CYP inhibition test used fluorogenic substrates specific to each CYP to check for inhibition thereof by detection of the expected metabolite using a fluorimetric method. Recombinant CYPs (CYP2B6, CYP2C8, CYP2C9, CYP2C9, CYP2C19, CYP2D6, CYP3A4) from specific humans for each cytochrome family, subfamily and polypeptide were used. The following were used as substrates: CEC (3-Cyano-7-Ethoxycoumarin) which forms as metabolite CHC (3-Cyano-7-Hydroxycoumarin); EFC (7-Ethoxy-4-trifluoromethyl coumarin), forming the metabolite HFC (7-Hydroxytrifluoromethylcoumarin); DBF (Dibenzylfluorescein) and its respective fluorescein metabolite; MFC (7-Methoxy-4-trifluoromethylcoumarin) which forms the metabolite HFC (7-Hydroxytrifluoromethylcoumarin); BFC (7-Benzyloxy-Trifluoromethylcoumarin) and its metabolite HFC; and BzRes (benzyloxyresorufin) to form resofurine. The detection of the metabolite was done with a fluorimetric method: analytical technique to identify and characterize the amount of substance by excitation using a beam of ultraviolet light and measurement of the emitted fluorescence. For detection, a 96-well plate was used. […] Incubations were performed between 20-50 minutes at 37° C. according to the specific parameter of each fluorogenic substrate, for the evaluated component. Fluorescence at each well was detected before and after the incubation period.

[5] = tested on: cryopreserved hepatocytes from mice (CD-1 males); experiment: Intrinsic clearance in cryopreserved mouse hepatocytes; assay type: in vitro ADME; settings: 37° C.
Procedure: as §1

MT2 receptor = MT2 receptor (Homo sapiens (Human), UniProt P49286); experiment: MT2 functional assay; assay type: cell-based
MT2 receptor, sequence (P49286 whole entry): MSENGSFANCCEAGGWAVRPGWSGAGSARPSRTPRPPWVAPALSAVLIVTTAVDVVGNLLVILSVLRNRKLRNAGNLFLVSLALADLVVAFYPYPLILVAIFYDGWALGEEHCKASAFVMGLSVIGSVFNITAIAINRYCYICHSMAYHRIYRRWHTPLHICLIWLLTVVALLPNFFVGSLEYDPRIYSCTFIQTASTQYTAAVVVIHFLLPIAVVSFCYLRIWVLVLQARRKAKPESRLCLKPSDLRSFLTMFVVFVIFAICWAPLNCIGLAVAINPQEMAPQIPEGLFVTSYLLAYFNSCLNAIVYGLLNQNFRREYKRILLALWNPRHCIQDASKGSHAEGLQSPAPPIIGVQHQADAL

MT1 receptor = MT1 receptor (Homo sapiens (Human), UniProt P48039); experiment: MT1 functional assay
MT1 receptor, sequence (P48039 whole entry): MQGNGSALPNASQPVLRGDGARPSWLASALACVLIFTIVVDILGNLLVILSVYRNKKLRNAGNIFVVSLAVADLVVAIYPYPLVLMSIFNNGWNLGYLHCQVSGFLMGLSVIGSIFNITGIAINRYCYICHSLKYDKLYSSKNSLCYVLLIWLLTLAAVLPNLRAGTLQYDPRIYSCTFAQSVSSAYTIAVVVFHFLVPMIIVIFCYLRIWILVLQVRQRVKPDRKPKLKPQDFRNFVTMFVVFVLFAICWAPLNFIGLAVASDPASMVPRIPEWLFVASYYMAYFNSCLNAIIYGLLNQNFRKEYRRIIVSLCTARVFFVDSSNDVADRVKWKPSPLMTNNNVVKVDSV

[6] = Pharmacokinetics in CD-1 mouse, I.V. and oral; assay type: in vivo; settings: intravenous
Procedure: PK tests were performed with CD-1 mice, using 4 animals per molecule tested, 2 animals for pharmacokinetic analysis by intravenous (IV) administration and 2 animals for oral administration. The treatment was carried out in a single dose: I.V. group with dose of 1 mg/kg and Oral group with dose of 10 mg/kg. […] Blood collection was performed after euthanasia at 08 defined time points and at 24 hours post-dose. The pharmacokinetic analysis parameters detected for Group IV were: half-life (t½), drug concentration at time zero (C0), last measurable plasma concentration (AUClast), area under the plasma concentration curve extrapolation percentage (AUC % ext), area under the plasma concentration curve extrapolation to infinity (AUCinf), volume of distribution (Vz), steady state volume of distribution (Vss), clearance (CL) and mean residence time (MRT). The parameters evaluated for the Oral group were: bioavailability (F %), maximum concentration reached (Cmax), time to reach maximum plasma concentration (Tmax), last measurable plasma concentration (AUClast), area under the plasma concentration curve extrapolation percentage (AUC % ext), area under the plasma concentration curve extrapolation to infinity (AUCinf), area under the plasma concentration curve extrapolation to infinity versus dose (AUCinf/Dose), half-Life (t½), and mean residence time (MRT).

melatonin receptors = settings: literature (Depreux et al. 1994); cited from earlier work

| Intrinsic clearance half-life, Human hepatocytes [1] [h] | Intrinsic clearance half-life, Rat Sprague-Dawley hepatocytes [3] [h] | affinity to CYP isoforms, specially CYP1A2 (CYP1A2 [4]) | Intrinsic clearance half-life, Mouse CD-1 hepatocytes [5] [h] | intrinsic activity at MT2 (MT2 receptor) | intrinsic activity at MT1 (MT1 receptor) | C0 compared to agomelatine [6] | Clearance compared to agomelatine [6] | Structure (SMILES) | fraction metabolized in the liver by CYP1A2 (CYP1A2 [2]) | fraction metabolized by CYP2C9 and CYP2C19 (CYP2C9 and CYP2C19) [%] | affinity lower than melatonin affinity (melatonin receptors) |
| --- | --- | --- | --- | --- | --- | --- | --- | --- | --- | --- | --- |
| >2 | 0.883 |  | >2 |  |  | higher | lower | CCOc1nc2ccc(OC)cc2n1CCCNC(C)=O [IA2-120] |  |  |  |
| >2 | 0.867 |  | >2 |  |  | higher | lower | CCOc1nc2cc(Cl)c(OC)cc2n1CCNC(C)=O [IA2-121] |  |  |  |
| >2 | >2 |  | >2 |  |  | higher | lower | CCOc1nc2cc(Cl)c(OC)cc2n1CCCNC(C)=O [IA2-142] |  |  |  |
|  | 1.8 |  |  |  |  | higher | lower | COc1cc2c(cc1Cl)nc(OC)n2CCNC(C)=O [IA2-143] |  |  |  |

Continued, molecule first:

| Structure (SMILES) | Intrinsic clearance half-life, Human hepatocytes [1] [h] | Intrinsic clearance half-life, Rat Sprague-Dawley hepatocytes [3] [h] | affinity to CYP isoforms, specially CYP1A2 (CYP1A2 [4]) | Intrinsic clearance half-life, Mouse CD-1 hepatocytes [5] [h] | intrinsic activity at MT2 (MT2 receptor) | intrinsic activity at MT1 (MT1 receptor) | C0 compared to agomelatine [6] | Clearance compared to agomelatine [6] | fraction metabolized in the liver by CYP1A2 (CYP1A2 [2]) | fraction metabolized by CYP2C9 and CYP2C19 (CYP2C9 and CYP2C19) [%] | affinity lower than melatonin affinity (melatonin receptors) |
| --- | --- | --- | --- | --- | --- | --- | --- | --- | --- | --- | --- |
| COc1ccc2cccc(CCNC(C)=O)c2c1 [IA2-76 (agomelatine), agomelatine] | 0.8 | 0.833 | high affinity | 0.417 | agonist | agonist |  |  | Around 90% | 10 |  |
| COc1ccc2ncn(CCNC(C)=O)c2c1 [N-[2-(6-methoxybenzimidazol-1-yl)-ethyl]acetamide] |  |  |  |  |  |  |  |  |  |  | approximately 3,200 times |
